Tests used:
CYP3A4 = biological target: T1, CYP3A4 (Homo sapiens, UniProt P08684); assay: Inhibition of CYP enzyme (CYP3A4, midazolam substrate, liver microsomes); type: in vitro ADME; conditions: for inhibition at 5 min, 1 μM: human, pH 7.4, midazolam (M) as probe substrate; for CYP3A4(M) inhibition rate/1 μM: midazolam (M) as probe substrate
T1 construct: from tissue; host or cells: liver microsomes
Procedure: Assay 3: Inhibition of CYP Enzyme
1. 0.1 M potassium phosphate buffer (K-buffer), pH 7.4 was preheated;
100 mM K-Buffer: 9.5 mL Stock A and 40.5 mL Stock B were mixed, brought to a total volume of 500 mL with Milli-Q water, and titrated to pH 7.4 of KOH or H3PO4;
Stock A (1 M monobasic potassium phosphate): 136.5 g of monobasic potassium phosphate was dissolved in 1 L of Milli-Q water; and
Stock B (1 M dibasic potassium phosphate): 174.2 g of dibasic potassium phosphate was dissolved in 1 L of Milli-Q water.
2. Serial dilutions of test compounds and reference inhibitors (400×) were prepared in a 96-well plate:
2.1 8 μL of 10 mM test compounds was transferred to 12 μL of ACN. 2.2 A separate inhibitor solution was prepared for reference: 8 μL of inhibitor DMSO stock was added with 12 μL of ACN.
2.3 A 1:3 serial dilution was prepared with a DMSO:ACN mixture (v/v: 40:60).
3. 4×NADPH cofactor (66.7 mg NADPH dissolved in 10 mL 0.1 M K-buffer, pH 7.4) was prepared.
4. 4× substrate (2 mL for each isoform) was prepared as indicated in the table below (Liver microsomes must be added on ice).
5. 0.2 mg/mL liver microsome solution (990 μL of 0.1 M K-buffer was added to each 10 μL of 20 mg/mL) was prepared on ice.
6. 200 μL of 0.2 mg/mL liver microsomes was added on ice to a 96-well plate and then 1 μL of test compound or reference compound was added into corresponding wells.
7. The following solutions were added to a 96-well plate (in duplicate) on ice:
7.1 30 μL of 2× test compounds and reference compound in 0.2 mg/mL liver microsome solution were added;
7.2 15 μL of 4× substrate solution was added.
8. The 96-well assay plate and NADPH solution were pre-heated at 37° C. for 5 minutes.
9. 15 μL of pre-heated 8 mM NADPH solution was added into the assay plates to initiate the reaction.
10. The 3A4 subtype was incubated at 37° C. for 5 min for.
11. The reaction was quenched by adding 120 μL of ACN containing an internal standard.
12. After quenching, the plates were shaked in a vibrator (IKA, MTS 2/4) for 5 min (600 rpm/min) and then centrifuged at 3, 750 rpm for 15 min (Allegra X-12R centrifuge).
13. After centrifugation, 50 μL of the supernatant from each well was taken into a 96-well plate containing 70 μL of wastons water and mixed for LC/MS analysis.

hERG potassium channel = biological target: T2, hERG potassium channel (Homo sapiens, UniProt Q12809); assay: Inhibition of hERG potassium ion channel, manual whole-cell patch clamp in CHO hERG cells; type: cell-based; conditions: human, CHO cells stably expressing hERG
T2 construct: host or cells: CHO cells stably expressing hERG
Procedure: (§1) Assay 2: Inhibition of hERG Potassium Ion Channel
(§2) 2.1.1 Cells used in this experiment were CHO cell lines transfected with hERG cDNA and stably expressing hERG channels (supplied by Sophion Bioscience, Denmark), with cell progeny being P15. Cells were cultured in medium containing the following ingredients Invitrogen): Ham's F12 medium, 10% (v/v) inactivated fetal bovine serum, […] hygromycin B, and […] Geneticin.
(§3) 2.1.2 CHO hERG cells were grown in Petri dishes containing the above medium and cultured in an incubator of 5% CO2 at 37° C. CHO hERG cells were transferred onto round glass plates in Petri dishes and grown on the same culture medium and culture conditions as above 24 h to 48 h prior to the electrophysiological experiments. The density of CHO hERG cells on each round glass plate must meet the requirements that the vast majority of cells are independent and separate.
(§4) 2.2 Experimental Solution
(§5) The following solutions (recommended by Sophion) were used for electrophysiological recording. The reagents used in this test were provided by Sigma.
(§6) 2.3 Electrophysiological Recording System
(§7) In this experiment, whole-cell current recording was performed using a manual patch clamp system (HEKA EPC-10 signal amplification and digital conversion system, purchased from HEKA Electronic, Germany). The round glass slide of which surface CHO hERG cells were grown on was placed in an electrophysiological recording slot under an inverted microscope. Extracellular fluid was perfused continuously in the recording slot (approximately 1 ml per minute). Conventional whole-cell patch clamp current recording technique was used in the experiment. Unless otherwise specified, the experiments were performed at normal room temperature (25° C.). Cell patch clamp at −80 mV. Cell patch clamp voltage was depolarized to +20 mV to activate hERG potassium channel, and to −50 mV after 5 sec to eliminate inactivation and generate tail currents. The tail current peak was used as a value for hERG current. When the hERG potassium current recorded in the above steps became steady under continuous perfusion of the extracellular fluid in the recording slot, the subject drug to be tested could be added to the perfusion until the inhibition of the hERG current by the drug reached a steady state. Typically, the most recent three consecutive current recording lines were generally used as a measure to determine whether the state was stable. After reaching a steady state, it was perfused with extracellular fluid for washing until the hERG current returned to the value before the drug adding. One or more drugs, or multiple concentrations of the same drug, could be tested on a single cell but it was necessary to rinse with extracellular fluid before testing a different drug. Cisapride (purchased from Sigma) was used as a positive control in the experiments to ensure normal quality of the cells used.
(§8) 2.4 Treatment and Dilution of Compounds
(§9) The compound was first dissolved in DMSO to a concentration of 10 mM and then the compound was diluted 1000-fold to a final test concentration of 10 μM using extracellular fluid.
(§10) The final concentration of DMSO in the compound test solution was 0.1%. The test concentration of cisapride as a positive control was 0.1 μM. All stock solutions and test solutions were subjected to regular 5-10 minutes of sonication and shaking to ensure complete dissolution of the compound.
(§11) The test data were analyzed by the data analysis software provided by HEKA Patchmaster (V2x73.2), Microsoft Excel and Graphpad Prism 5.0.

[1] = biological target: T3, hERG potassium ion channel (Homo sapiens, UniProt Q12809); assay: as above; type: cell-based; conditions: CHO cells stably expressing hERG
T3 construct: host or cells: CHO cells stably expressing hERG
Procedure: as §1, §2, §3, §4, §5, §6, §7, §8, §9, §10, §11

T3 sequence (Q12809 whole entry): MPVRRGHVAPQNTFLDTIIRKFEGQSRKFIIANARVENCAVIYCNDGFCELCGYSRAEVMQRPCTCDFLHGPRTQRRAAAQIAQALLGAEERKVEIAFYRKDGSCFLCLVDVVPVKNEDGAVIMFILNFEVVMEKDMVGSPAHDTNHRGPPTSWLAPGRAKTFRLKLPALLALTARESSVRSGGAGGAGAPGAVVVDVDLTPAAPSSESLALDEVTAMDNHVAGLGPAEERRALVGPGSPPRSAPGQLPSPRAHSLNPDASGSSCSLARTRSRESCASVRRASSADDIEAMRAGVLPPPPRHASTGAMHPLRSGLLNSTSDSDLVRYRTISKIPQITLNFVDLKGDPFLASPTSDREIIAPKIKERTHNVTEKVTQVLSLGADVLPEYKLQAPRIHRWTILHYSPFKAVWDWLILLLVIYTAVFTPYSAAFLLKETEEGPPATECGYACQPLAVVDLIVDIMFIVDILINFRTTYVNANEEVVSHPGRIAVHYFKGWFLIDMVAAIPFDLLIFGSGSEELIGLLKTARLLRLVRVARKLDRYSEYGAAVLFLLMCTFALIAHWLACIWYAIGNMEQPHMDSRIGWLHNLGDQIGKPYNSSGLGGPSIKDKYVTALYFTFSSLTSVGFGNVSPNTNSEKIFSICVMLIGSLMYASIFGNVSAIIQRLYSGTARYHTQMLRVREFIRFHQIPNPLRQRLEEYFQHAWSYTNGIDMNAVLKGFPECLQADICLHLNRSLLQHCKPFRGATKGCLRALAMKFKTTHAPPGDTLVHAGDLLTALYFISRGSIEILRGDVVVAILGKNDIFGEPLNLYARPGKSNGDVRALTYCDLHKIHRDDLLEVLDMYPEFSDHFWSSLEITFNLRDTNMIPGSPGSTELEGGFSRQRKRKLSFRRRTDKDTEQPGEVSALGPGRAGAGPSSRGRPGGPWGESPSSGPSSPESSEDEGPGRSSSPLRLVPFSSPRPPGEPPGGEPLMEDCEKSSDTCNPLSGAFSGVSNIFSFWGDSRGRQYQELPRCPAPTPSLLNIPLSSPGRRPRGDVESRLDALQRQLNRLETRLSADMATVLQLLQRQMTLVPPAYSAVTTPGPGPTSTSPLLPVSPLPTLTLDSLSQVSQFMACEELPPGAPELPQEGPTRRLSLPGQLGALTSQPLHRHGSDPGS
T1 sequence (P08684 whole entry): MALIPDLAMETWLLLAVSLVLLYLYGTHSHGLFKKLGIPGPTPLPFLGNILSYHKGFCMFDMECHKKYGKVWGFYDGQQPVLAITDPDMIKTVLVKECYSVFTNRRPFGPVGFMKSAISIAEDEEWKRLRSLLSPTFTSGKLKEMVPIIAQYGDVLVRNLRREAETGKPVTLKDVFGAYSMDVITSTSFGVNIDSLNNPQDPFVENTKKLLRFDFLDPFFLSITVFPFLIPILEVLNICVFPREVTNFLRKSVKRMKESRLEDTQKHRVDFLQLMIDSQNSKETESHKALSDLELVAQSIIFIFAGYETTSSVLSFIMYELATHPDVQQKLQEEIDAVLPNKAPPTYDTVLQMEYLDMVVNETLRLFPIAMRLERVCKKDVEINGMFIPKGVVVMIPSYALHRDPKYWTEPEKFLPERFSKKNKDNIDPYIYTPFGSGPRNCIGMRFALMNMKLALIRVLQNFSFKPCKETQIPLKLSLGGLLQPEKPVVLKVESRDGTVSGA
T2 sequence (Q12809 whole entry): as the sequence (Q12809 whole entry) above

| SMILES | inhibition at 5 min, 1 μM (CYP3A4) | inhibition at 10 μM (hERG potassium channel) | hERG inhibition rate/10 μM [1] | CYP3A4(M) inhibition rate/1 μM (CYP3A4) |
| --- | --- | --- | --- | --- |
| CN1CCN(C(=O)Oc2ccc3c(c2)[C@@]2(C)CCCCC[C@@H](C3)[C@@H]2N)CC1 [Compound Z-2] | 19.8% | – | – | – |
| COCCOCCN(C)C(=O)Oc1ccc2c(c1)[C@@]1(C)CCCCC[C@@H](C2)[C@@H]1N [Compound Z-14] | 49.5% | – | – | – |
| COCCCNC(=O)Oc1ccc2c(c1)[C@@]1(C)CCCCC[C@@H](C2)[C@@H]1N [Compound Z-19] | 33.6% | – | – | – |
| C[C@@]12CCCCC[C@@H](Cc3ccc(OC(=O)Nc4ccc(O)cc4)cc31)[C@@H]2N [Compound Z-23] | 89.2% | 71.5% | – | – |
| C[C@@]12CCCCC[C@@H](Cc3ccc(OC(=O)Nc4ccc(F)cc4)cc31)[C@@H]2N [Compound Z-35] | 88.1% | – | – | – |
| CN(CC(=O)O)C(=O)Oc1ccc2c(c1)[C@@]1(C)CCCCC[C@@H](C2)[C@@H]1N [Compound Z-100] | 1.6% | – | – | – |
| C[C@@]12CCCCC[C@@H](Cc3ccc(OC(=O)N4CCC(N5CCOCC5)CC4)cc31)[C@@H]2N [Compound Z-109] | – | – | 17.20% | 6.6% |
| C[C@@]12CCCCC[C@@H](Cc3ccc(OC(=O)NC4CCOCC4)cc31)[C@@H]2N [Compound Z-110] | – | – | 13.32% | 28.0% |
| COC1CN(C(=O)Oc2ccc3c(c2)[C@@]2(C)CCCCC[C@@H](C3)[C@@H]2N)C1 [Compound Z-111] | – | – | – | 45.7% |
| CCN(CCN(C)C)C(=O)Oc1ccc2c(c1)[C@@]1(C)CCCCC[C@@H](C2)[C@@H]1N [Compound Z-113] | – | – | 16.02% | 28.6% |
| C[C@@]12CCCCC[C@@H](Cc3ccc(OC(=O)N4CC(O)C4)cc31)[C@@H]2N [Compound Z-114] | – | – | 17.07% | 11.8% |
| CC12CCCCCC(Cc3ccc(OC(=O)NC4CC(O)C4)cc31)C2N (centres unmarked) [Compound Z-115] | – | – | 12.90% | 18.0% |
| C[C@@]12CCCCC[C@@H](Cc3ccc(OC(=O)N4CCS(=O)(=O)CC4)cc31)[C@@H]2N [Compound Z-116] | – | – | 11.22% | 14.2% |
| C[C@@]12CCCCC[C@@H](Cc3ccc(OC(=O)NC4COC4)cc31)[C@@H]2N [Compound Z-117] | – | – | 20.59% | 23.8% |
| C[C@@]12CCCCC[C@@H](Cc3ccc(OC(=O)NCCO)cc31)[C@@H]2N [Compound Z-118] | – | – | – | 8.8% |
| COc1ccc(NC(=O)Oc2ccc3c(c2)[C@@]2(C)CCCCC[C@@H](C3)[C@@H]2N)nc1 [Compound Z-119] | – | – | 78% | – |
| C[C@@]12CCCCC[C@@H](Cc3ccc(OC(=O)NC4(CO)CC4)cc31)[C@@H]2N [Compound Z-122] | – | – | 1.91% | 17.0% |

| SMILES | inhibition at 5 min, 1 μM (CYP3A4) | inhibition at 10 μM (hERG potassium channel) | hERG inhibition rate/10 μM [1] | CYP3A4(M) inhibition rate/1 μM (CYP3A4) |
| --- | --- | --- | --- | --- |
| CN(C)C1CCN(C(=O)Oc2ccc3c(c2)[C@@]2(C)CCCCC[C@@H](C3)[C@@H]2N)CC1 [Compound Z-123] | – | – | 8.84% | 0% |
| C[C@@]12CCCCC[C@@H](Cc3ccc(OC(=O)N4CCC(O)CC4)cc31)[C@@H]2N [Compound Z-124] | – | – | – | 19.6% |
| CC(=O)N1CCN(C(=O)Oc2ccc3c(c2)[C@@]2(C)CCCCC[C@@H](C3)[C@@H]2N)CC1 [Compound Z-125] | – | – | – | 18.1% |
| CC(CO)NC(=O)Oc1ccc2c(c1)C1(C)CCCCCC(C2)C1N (centres unmarked) [Compound Z-126] | – | – | 4.92% | 3.6% |
| CN(CCO)C(=O)Oc1ccc2c(c1)[C@@]1(C)CCCCC[C@@H](C2)[C@@H]1N [Compound Z-127] | – | – | 9.95% | 17.4% |
| C[C@@]12CCCCC[C@@H](Cc3ccc(OC(=O)N4CCC(CO)CC4)cc31)[C@@H]2N [Compound Z-128] | – | – | – | 41.9% |
| CC1CNCCN1C(=O)Oc1ccc2c(c1)C1(C)CCCCCC(C2)C1N (centres unmarked) [Compound Z-129] | – | – | – | 4.0% |
| C[C@@]12CCCCC[C@@H](Cc3ccc(OC(=O)N4CCC(C(=O)O)CC4)cc31)[C@@H]2N [Compound Z-130] | – | – | 3.24% | 13.0% |
| CCN(C(=O)Oc1ccc2c(c1)[C@@]1(C)CCCCC[C@@H](C2)[C@@H]1N)C1CCN(C)CC1 [Compound Z-131] | – | – | 39.88% | 26.7% |
| COC(=O)C1CCCN(C(=O)Oc2ccc3c(c2)C2(C)CCCCCC(C3)C2N)C1 (centres unmarked) [Compound Z-135] | – | – | – | 21.3% |
| CC12CCCCCC(Cc3ccc(OC(=O)N4CCCC(C(=O)O)C4)cc31)C2N (centres unmarked) [Compound Z-136] | – | – | – | 0% |
| C[C@@]12CCCCC[C@@H](Cc3ccc(OC(=O)N4CCC4)cc31)[C@@H]2N [Compound Z-137] | – | – | – | 45.3% |
| C[C@@]12CCCCC[C@@H](Cc3ccc(OC(=O)NC(CO)CO)cc31)[C@@H]2N [Compound Z-138] | – | – | – | 0% |
| CN1CCC(NC(=O)Oc2ccc3c(c2)[C@@]2(C)CCCCC[C@@H](C3)[C@@H]2N)CC1 [Compound Z-140] | – | – | – | 8.7% |
| CN(C(=O)Oc1ccc2c(c1)[C@@]1(C)CCCCC[C@@H](C2)[C@@H]1N)C1COC1 [Compound Z-141] | – | – | – | 30.8% |
| CN(C)CCNC(=O)Oc1ccc2c(c1)[C@@]1(C)CCCCC[C@@H](C2)[C@@H]1N [Compound Z-144] | – | – | – | 22.2% |

Source: patent US10577346B2, “Benzobicycloalkane derivatives, their preparation and pharmaceutical use thereof” (priority 2016, dated 2020)
